Values of other authors as cited in patent publication US20050069593A1, “Nutritional supplement containing 7-Keto-DHEA and conjugated linoleic acid” (LIFE TIME FITNESS, Inc., priority 2003, published 2005).

Tested on: brown adipose tissue
Settings: in vitro; Dulloo, et al., Int. J. Obes. Relat. Metab. Disord. 24, 252 (2000)

O=C(O[C@@H]1Cc2c(O)cc(O)cc2O[C@@H]1c1cc(O)c(O)c(O)c1)c1cc(O)c(O)c(O)c1 [EGCG, epigallocatechin gallate]
respiration rate of brown adipose tissue: increased
